Experimental data as given in patent publication US20170173134A1 (priority 2011, published 2017).
Where two headings read alike, the source gives them in different places.

Tests used:
[1] = n = 10
[2] = test system: MNU-induced bladder cancer; assay type: in vivo, female Fischer 344 rats
[3] = in vivo; cited from earlier work
[4] = test system: bladder cancer; conditions: human, in vivo; cited from earlier work
[5] = test system: MNU-induced urinary bladder carcinoma; assay: Second experiment (Table 5): histological assessment, MNU-induced bladder cancer; assay type: in vivo, rats
Experimental: The therapeutic effect in urinary bladder cancer in animals was assessed by histological evaluation of the tissues. The criteria for assessing normality of the tissues examined for all the experiments using the same animal model, that is, the experiments reported in Table 4, Table 5, Table 6-A, Table 6-B, Table 6-C and Table 6-D are: normal tissue, flat hyperplasia, papillary hyperplasia.
Flat hyperplasia and papillary hyperplasia are reactive changes of an inflammatory nature, though benign, and their occurrence in the experiments for assessment of new drugs in animals affected with cancer, indicates a reversal of the cancer process to non-cancerous stages.
Metaplasia is defined as the replacement of a normal functional tissue with another tissue with different structure, with loss of function, and, thus, is considered a form of premalignant lesion.
[…] animals (n=50) were used in the experiment. The therapeutic effect was assessed through histological assessment of tissues, and the toxicological effect of the compounds, through assessment of the presence or absence of urinary bleeding also called hematuria.
All the animals in the experiment were subjected to intravesical applications of 1.5 mg/kg of n-methyl-n-nitrosourea (MNU) dissolved in 0.30 mL of sodium citrate, using a catheter, for 7 weeks. One group (control) of 10 animals was given only saline solution ([…]), also intravesically and for an equal period.
The purpose of using n-methyl-n-nitrosourea (MNU) was to experimentally induce immunosuppression and subsequently producing urinary bladder carcinoma. After treatment with MNU, the animals were divided into 05 groups of 10 animals each.
After this procedure, all the 10 animals of each group were sacrificed and their urinary bladders were removed for collection of tissue fragments, which were embedded in paraffin and prepared for histological section, by the usual techniques.
For the histological examinations, sections (2 μm) of the tissue of the urinary bladder were cut using microtome Zeiss, mounted on microscope slides, and stained with hematoxylin-eosin (HE), for subsequent pathology assessment, quantification of cellular changes and comparison between control and treatment groups.

[6] = test system: MNU-induced cancerous lesions of the urinary bladder; assay type: in vivo, Fischer 344 rats
[7] = 10 mg/kg intravesical, 14 weeks; n = 10
[8] = rat, in vivo
[9] = test system: bladder cancer induced by MNU; set-up: species or system Fischer rats; conditions: rat, in vivo
[10] = test system: MNU-induced urinary bladder carcinoma; set-up: species or system rats; conditions: rat, in vivo
[11] = MNU-induced bladder cancer, 10 mg/kg intravesical (topical application), 14 weeks, n = 10
[12] = Table 5 experiment, intravesical

## CC(=O)O[C@@]12CO[C@@H]1C[C@H](O)[C@@]1(C)C(=O)[C@H](O)C3=C(C)[C@@H](OC(=O)[C@H](O)[C@@H](NC(=O)OC(C)(C)C)c4ccccc4)C[C@@](O)([C@@H](OC(=O)c4ccccc4)[C@H]21)C3(C)C [Docetaxel]
[1]
  Toxicology: (Hematuria), number of animals positive: +10
[2]; rat, in vivo
  Flat hyperplasia, number of animals: 1
  High-grade intraepithelial carcinoma (carcinoma in situ-Tis), number of animals: 3
  Low grade Intraepithelial neoplasia, number of animals: 2
  Normal, number of animals: 1
  Papillary carcinoma (Ta), number of animals: 1
  Papillary hyperplasia, number of animals: 1
  Squamous metaplasia, number of animals: 1
  success rate / responders: 20%

## Nc1ccn([C@@H]2O[C@H](CO)[C@@H](O)C2(F)F)c(=O)n1 [Gemcitabine]
[1]
  Toxicology: (Hematuria), number of animals in which absent: in 06
  Toxicology: (Hematuria), number of animals positive: +in 04
[2]; n = 10
  Flat hyperplasia, number of animals: 2
  High-grade intraepithelial carcinoma (carcinoma in situ-Tis), number of animals: 4
  Low grade Intraepithelial neoplasia, number of animals: 2
  Papillary hyperplasia, number of animals: 2
[2]; rat, in vivo
  success rate / responders: 40%

## COc1cccc2c1C(=O)c1c(O)c3c(c(O)c1C2=O)C[C@@](O)(C(=O)CO)C[C@@H]3O[C@H]1C[C@H](N)[C@H](O)[C@H](C)O1 [Doxorubicin]
[3]
  Allergic reaction, (%) patients affected: 1%
  Chemical cystitis, (%) patients affected: 25%

## S=P(N1CC1)(N1CC1)N1CC1 [Thiotepa]
[3]
  Chemical cystitis, (%) patients affected: 20%
  Myelosuppression, (%) patients affected: 10%

## CCCCC(=O)OCC(=O)[C@]1(O)Cc2c(O)c3c(c(O)c2[C@@H](O[C@H]2C[C@H](NC(=O)C(F)(F)F)[C@H](O)[C@H](C)O2)C1)C(=O)c1c(OC)cccc1C3=O [Valrubicin, N-trifluoroacetyladriamycin-14-valerate]
Fischer 344, rat, in vivo
  Toxicology: Presence of hematuria, number of animals: N = 10
N = 10
  Toxicology: Presence of hematuria: Positive
  Toxicology: Presence of hematuria, % of animals: 100%
[4]
  patients treated in whom results are seen: 20%
[5]; [11]
  High grade intraepithelial neoplasia (carcinoma in situ-Tis), animals: 2 (20%) n (%)
  Low grade intraepithelial neoplasia, animals: 5 (50%) n (%)
  Normal, animals: 1 (10%) n (%)
  Papillary carcinoma (Ta), animals: 1 (10%) n (%)
  Squamous metaplasia, animals: 1 (10%) n (%)
[5]; [12]
  therapeutic effectiveness / efficacy: 10%
[6]; n = 10
  Flat hyperplasia, animals: 1(10%)
  High-grade intraepithelial carcinoma (carcinoma in situ-Tis), animals: 2(20%)
  Low-grade intraepithelial carcinoma, animals: 4(40%)
  Papillary carcinoma (Ta), animals: 1(10%)
  Papillary hyperplasia, animals: 1(10%)
  Squamous metaplasia, animals: 1(10%)
[7]
  Toxicology: (Hematuria): Positive
  Toxicology: (Hematuria), % of animals: (100%)

## Bacillus Calmette-Guérin [BCG]
rat, in vivo
  Toxicology: Presence of hematuria: Positive
  Toxicology: Presence of hematuria, % of animals: (100%)
  Toxicology: Presence of hematuria, number of animals: n = 10
[8]
  Toxicology: (Hematuria): Positive
  Toxicology: (Hematuria), % of animals: (100%)
  degree of hematuria moderate, % of animals: 80%
  degree of hematuria severe, % of animals: 20%
[4]
  patients with no recurrence of cancer during the follow-up period: 39%
  rate of recurrence after 5 years (SWOG 8507): 60%
  recurrence rate after 5 years: 34%
  relapse among patients who respond well in the early days: 30%
[3]
  patients affected by local toxicity (cystitis, macroscopic haematuria): up to 75%
  patients with unwanted side effects (irritation, haematuria, dysuria): around 90%
  withdrawal from treatment because of local toxicity: around 15%
[9]
  Flat hyperplasia, number of animals: 1
  High-grade Intraurothelial Neoplasia - Carcinoma in situ (pTis), number of animals: 1
  Low-grade Intraurothelial Neoplasia, number of animals: 1
  Normal, number of animals: 1
  Papillary Carcinoma (pTa), number of animals: 2
  Papillary hyperplasia, number of animals: 3
  Urothelial carcinoma with lamina propria invasion (pT1), number of animals: 2
  recurrent or refractory / malignant lesions: 83%
  recurrent or refractory lesions: 17%
  responders: 83%
  responders (absence of malignant lesions): 17%
[6]; rat, in vivo
  Flat hyperplasia, animals: 2(20%)
  High-grade intraepithelial carcinoma (carcinoma in situ-Tis), animals: 2(20%)
  Low-grade intraepithelial carcinoma, animals: 3(30%)
  Normal, animals: 0%
  Papillary hyperplasia, animals: 2(20%)
  Squamous metaplasia, animals: 1(10%)
[10]
  animals with positive result / positive outcome (histopathology): 40%
[2]; rat, in vivo
  Flat hyperplasia, number of animals: 2
  High-grade intraepithelial carcinoma (carcinoma in situ-Tis), number of animals: 3
  Low grade Intraepithelial neoplasia, number of animals: 2
  Normal, number of animals: 0
  Papillary carcinoma (Ta), number of animals: 1
  Papillary hyperplasia, number of animals: 2
  animals with recurrent/refractory malignant lesions: 06
  success rate / responders: 40%

## CO[C@@]12[C@H](COC(N)=O)C3=C(C(=O)C(C)=C(N)C3=O)N1C[C@@H]1N[C@@H]12 [Mitomycin C]
[4]
  patients with no recurrence of cancer during the follow-up period: 19%
  recurrence rate after 5 years: 64%
[5]; [12]
  animals that had cancer after treatment: 50%
[3]
  Bladder contraction, (%) patients affected: <2%
  Hematuria, (%) patients affected: 10%
  Myelosuppression, (%) patients affected: <10%
[6]; n = 10
  Flat hyperplasia, animals: 1(10%)
  High-grade intraepithelial carcinoma (carcinoma in situ-Tis), animals: 3(30%)
  Low-grade intraepithelial carcinoma, animals: 6(60%)
  Normal, animals: 0%
